Assay results as given in patent publication US20150105252A1, “SUBSTITUTED PYRAZOLES AS HERBICIDES” (E I DU PONT DE NEMOURS AND COMPANY, priority 2013, published 2015).

Legend:
[1] = system: barnyardgrass; assay: Test A preemergence; assay type: in vivo, Echinochloa crus-galli; conditions: preemergence; for Barnyardgrass plant response rating (0 to 100 scale, 0 is no effect, 100 is complete control): 125 g ai/ha, visual injury approx. 10 days after treatment; for Barnyardgrass plant response rating: 500 g ai/ha, visual injury after approx. 10 days, 0 to 100 scale (0 no effect, 100 complete control)
How it was run: (§1)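 Both timings tested concurrently in loam/sand soil: preemergence by directed soil spray, postemergence on plants of 2–10 cm at the one- to two-leaf stage. Greenhouse holding period was approximately 10 days before visual injury assessment (0–100, 0 = no effect).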

[2] = system: crabgrass, large; assay: Test A preemergence; assay type: in vivo, Digitaria sanguinalis; conditions: preemergence; for Crabgrass, Large plant response rating (0 to 100 scale): 125 g ai/ha, visual injury approx. 10 days after treatment; for Crabgrass, Large plant response rating: 500 g ai/ha, visual injury after approx. 10 days, 0 to 100 scale (0 no effect, 100 complete control)
How it was run: as §1

[3] = system: foxtail, giant; assay: Test A preemergence; assay type: in vivo, Setaria faberii; conditions: preemergence; for Foxtail, Giant plant response rating (0 to 100 scale): 125 g ai/ha, visual injury approx. 10 days after treatment; for Foxtail, Giant plant response rating: 500 g ai/ha, visual injury after approx. 10 days, 0 to 100 scale (0 no effect, 100 complete control)
How it was run: as §1

[4] = system: morningglory; assay: Test A preemergence; assay type: in vivo, Ipomoea spp.; conditions: preemergence, 125 g ai/ha, visual injury approx. 10 days after treatment
How it was run: as §1

[5] = system: pigweed; assay: Test A preemergence; assay type: in vivo, Amaranthus retroflexus; conditions: preemergence, 125 g ai/ha, visual injury approx. 10 days after treatment
How it was run: as §1

[6] = system: velvetleaf; assay: Test A preemergence; assay type: in vivo, Abutilon theophrasti; conditions: preemergence, 125 g ai/ha, visual injury approx. 10 days after treatment
How it was run: as §1

[7] = system: wheat; assay: Test A preemergence; assay type: in vivo, Triticum aestivum; conditions: preemergence, 125 g ai/ha, visual injury approx. 10 days after treatment
How it was run: as §1

[8] = system: corn; assay: Test A preemergence; assay type: in vivo, Zea mays; conditions: preemergence; for Corn plant response rating (0 to 100 scale): 125 g ai/ha, visual injury approx. 10 days after treatment; for Corn plant response rating: 500 g ai/ha, visual injury after approx. 10 days, 0 to 100 scale (0 no effect, 100 complete control)
How it was run: as §1

[9] = system: barnyardgrass; assay: Test A postemergence; assay type: in vivo, Echinochloa crus-galli; conditions: Postemergence
How it was run: as §1

[10] = system: crabgrass, large; assay: Test A postemergence; assay type: in vivo, Digitaria sanguinalis; conditions: Postemergence
How it was run: as §1

[11] = system: foxtail, giant; assay: Test A postemergence; assay type: in vivo, Setaria faberii; conditions: Postemergence
How it was run: as §1

[12] = system: morningglory; assay: Test A postemergence; assay type: in vivo, Ipomoea spp.; conditions: Postemergence
How it was run: as §1

[13] = system: pigweed; assay: Test A postemergence; assay type: in vivo, Amaranthus retroflexus; conditions: Postemergence
How it was run: as §1

[14] = system: velvetleaf; assay: Test A postemergence; assay type: in vivo, Abutilon theophrasti; conditions: Postemergence
How it was run: as §1

[15] = system: wheat; assay: Test A postemergence; assay type: in vivo, Triticum aestivum; conditions: Postemergence
How it was run: as §1

[16] = system: corn; assay: Test A postemergence; assay type: in vivo, Zea mays; conditions: Postemergence
How it was run: as §1

[17] = system: rice; assay: Test B flood; assay type: in vivo, Oryza sativa; conditions: 250 g ai/ha, visual rating on 0 to 100 scale (0 no effect, 100 complete control), 13 to 15 days
How it was run: (§2)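 2-leaf plants; pots flooded 3 cm over soil; compound added to paddy water, depth kept constant. Greenhouse 13–15 d. Visual rating vs controls, 0–100 scale (100 = complete control); dash = no result.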

[18] = system: sedge, umbrella; assay: Test B flood; assay type: in vivo, Cyperus difformis; conditions: 250 g ai/ha, visual rating on 0 to 100 scale (0 no effect, 100 complete control), 13 to 15 days
How it was run: as §2

[19] = system: ducksalad; assay: Test B flood; assay type: in vivo, Heteranthera limosa; conditions: 250 g ai/ha, visual rating on 0 to 100 scale (0 no effect, 100 complete control), 13 to 15 days
How it was run: as §2

[20] = system: barnyardgrass; assay: Test B flood; assay type: in vivo, Echinochloa crus-galli; conditions: 250 g ai/ha, visual rating on 0 to 100 scale (0 no effect, 100 complete control), 13 to 15 days
How it was run: as §2

[21] = 125 g ai/ha, 0 to 100 scale, 0 no effect, 100 complete control
[22] = 500 g ai/ha, 0 to 100 scale (0 no effect, 100 complete control)

CCCNC(=O)c1cc(CC)n(Oc2cccc(C(F)(F)F)c2)n1 [Compound 216]
Barnyardgrass plant response rating (0 to 100 scale, 0 is no effect, 100 is complete control) [1]: 0
Barnyardgrass plant response rating [1]: 80
Crabgrass, Large plant response rating (0 to 100 scale) [2]: 60
Crabgrass, Large plant response rating [2]: 90
Foxtail, Giant plant response rating (0 to 100 scale) [3]: 10
Foxtail, Giant plant response rating [3]: 40
Morningglory plant response rating (0 to 100 scale) [4]: 0
Pigweed plant response rating (0 to 100 scale) [5]: 0
Velvetleaf plant response rating (0 to 100 scale) [6]: 0
Wheat plant response rating (0 to 100 scale) [7]: 0
Corn plant response rating (0 to 100 scale) [8]: 0
Corn plant response rating [8]: 10
Barnyardgrass plant response rating [9, 21]: 0
Barnyardgrass plant response rating [9, 22]: 70
Crabgrass, Large plant response rating [10, 21]: 20
Crabgrass, Large plant response rating [10, 22]: 70
Foxtail, Giant plant response rating [11, 21]: 0
Foxtail, Giant plant response rating [11, 22]: 40
Morningglory plant response rating [12, 21]: 20
Morningglory plant response rating [12, 22]: 70
Pigweed plant response rating [13, 21]: 20
Pigweed plant response rating [13, 22]: 30
Velvetleaf plant response rating [14, 21]: 0
Velvetleaf plant response rating [14, 22]: 40
Wheat plant response rating [15, 21]: 0
Wheat plant response rating [15, 22]: 0
Corn plant response rating [16, 21]: 0
Corn plant response rating [16, 22]: 50
Plant response rating, Rice [17]: 0
Plant response rating, Sedge, Umbrella [18]: 30
Plant response rating, Ducksalad [19]: 20
Plant response rating, Barnyardgrass [20]: 0

CCc1cc(C(=O)NCC(F)(F)F)nn1Oc1cccc(C(F)(F)F)c1 [Compound 217]
Barnyardgrass plant response rating (0 to 100 scale, 0 is no effect, 100 is complete control) [1]: 0
Barnyardgrass plant response rating [1]: 20
Crabgrass, Large plant response rating (0 to 100 scale) [2]: 50
Crabgrass, Large plant response rating [2]: 90
Foxtail, Giant plant response rating (0 to 100 scale) [3]: 0
Foxtail, Giant plant response rating [3]: 40
Morningglory plant response rating (0 to 100 scale) [4]: 0
Pigweed plant response rating (0 to 100 scale) [5]: 20
Velvetleaf plant response rating (0 to 100 scale) [6]: 0
Wheat plant response rating (0 to 100 scale) [7]: 0
Corn plant response rating (0 to 100 scale) [8]: 0
Corn plant response rating [8]: 0
Barnyardgrass plant response rating [9, 21]: 0
Barnyardgrass plant response rating [9, 22]: 20
Crabgrass, Large plant response rating [10, 21]: 20
Crabgrass, Large plant response rating [10, 22]: 70
Foxtail, Giant plant response rating [11, 21]: 0
Foxtail, Giant plant response rating [11, 22]: 30
Morningglory plant response rating [12, 21]: 20
Morningglory plant response rating [12, 22]: 70
Pigweed plant response rating [13, 21]: 20
Pigweed plant response rating [13, 22]: 70
Velvetleaf plant response rating [14, 21]: 0
Velvetleaf plant response rating [14, 22]: 30
Wheat plant response rating [15, 21]: 0
Wheat plant response rating [15, 22]: 0
Corn plant response rating [16, 21]: 0
Corn plant response rating [16, 22]: 20
Plant response rating, Rice [17]: 0
Plant response rating, Sedge, Umbrella [18]: 0
Plant response rating, Ducksalad [19]: 0
Plant response rating, Barnyardgrass [20]: 0

CCc1cc(C(=O)NCC(F)(F)F)nn1Oc1cccc(C(F)(F)F)c1 [Compound 218]
Barnyardgrass plant response rating (0 to 100 scale, 0 is no effect, 100 is complete control) [1]: 0
Barnyardgrass plant response rating [1]: 40
Crabgrass, Large plant response rating (0 to 100 scale) [2]: 10
Crabgrass, Large plant response rating [2]: 80
Foxtail, Giant plant response rating (0 to 100 scale) [3]: 0
Foxtail, Giant plant response rating [3]: 40
Morningglory plant response rating (0 to 100 scale) [4]: 0
Pigweed plant response rating (0 to 100 scale) [5]: 0
Velvetleaf plant response rating (0 to 100 scale) [6]: 0
Wheat plant response rating (0 to 100 scale) [7]: 0
Corn plant response rating (0 to 100 scale) [8]: 0
Corn plant response rating [8]: 0
Barnyardgrass plant response rating [9, 21]: 0
Barnyardgrass plant response rating [9, 22]: 20
Crabgrass, Large plant response rating [10, 21]: 20
Crabgrass, Large plant response rating [10, 22]: 40
Foxtail, Giant plant response rating [11, 21]: 20
Foxtail, Giant plant response rating [11, 22]: 30
Morningglory plant response rating [12, 21]: 50
Morningglory plant response rating [12, 22]: 100
Pigweed plant response rating [13, 21]: 50
Pigweed plant response rating [13, 22]: 80
Velvetleaf plant response rating [14, 21]: 0
Velvetleaf plant response rating [14, 22]: 40
Wheat plant response rating [15, 21]: 0
Wheat plant response rating [15, 22]: 10
Corn plant response rating [16, 21]: 10
Corn plant response rating [16, 22]: 20
Plant response rating, Rice [17]: 0
Plant response rating, Sedge, Umbrella [18]: 0
Plant response rating, Ducksalad [19]: 0
Plant response rating, Barnyardgrass [20]: 0

CCCNC(=O)c1cc(CC)n(Oc2cccc(OC(F)(F)F)c2)n1 [Compound 219]
Barnyardgrass plant response rating (0 to 100 scale, 0 is no effect, 100 is complete control) [1]: 0
Barnyardgrass plant response rating [1]: 20
Crabgrass, Large plant response rating (0 to 100 scale) [2]: 40
Crabgrass, Large plant response rating [2]: 90
Foxtail, Giant plant response rating (0 to 100 scale) [3]: 0
Foxtail, Giant plant response rating [3]: 20
Morningglory plant response rating (0 to 100 scale) [4]: 0
Pigweed plant response rating (0 to 100 scale) [5]: 0
Velvetleaf plant response rating (0 to 100 scale) [6]: 0
Wheat plant response rating (0 to 100 scale) [7]: 0
Corn plant response rating (0 to 100 scale) [8]: 0
Corn plant response rating [8]: 0
Barnyardgrass plant response rating [9, 21]: 10
Barnyardgrass plant response rating [9, 22]: 40
Crabgrass, Large plant response rating [10, 21]: 20
Crabgrass, Large plant response rating [10, 22]: 70
Foxtail, Giant plant response rating [11, 21]: 20
Foxtail, Giant plant response rating [11, 22]: 60
Morningglory plant response rating [12, 21]: 10
Morningglory plant response rating [12, 22]: 70
Pigweed plant response rating [13, 21]: 20
Pigweed plant response rating [13, 22]: 60
Velvetleaf plant response rating [14, 21]: 0
Velvetleaf plant response rating [14, 22]: 90
Wheat plant response rating [15, 21]: 0
Wheat plant response rating [15, 22]: 10
Corn plant response rating [16, 21]: 10
Corn plant response rating [16, 22]: 20
Plant response rating, Rice [17]: 0
Plant response rating, Sedge, Umbrella [18]: 75
Plant response rating, Ducksalad [19]: 30
Plant response rating, Barnyardgrass [20]: 0

COCc1cc(C(=O)NCC(F)(F)F)nn1Cc1cc(C(F)(F)C(F)(F)F)nn1C [Compound 225]
Barnyardgrass plant response rating (0 to 100 scale, 0 is no effect, 100 is complete control) [1]: 10
Barnyardgrass plant response rating [1]: 80
Crabgrass, Large plant response rating (0 to 100 scale) [2]: 20
Crabgrass, Large plant response rating [2]: 90
Foxtail, Giant plant response rating (0 to 100 scale) [3]: 20
Foxtail, Giant plant response rating [3]: 70
Morningglory plant response rating (0 to 100 scale) [4]: 30
Pigweed plant response rating (0 to 100 scale) [5]: 20
Velvetleaf plant response rating (0 to 100 scale) [6]: 0
Wheat plant response rating (0 to 100 scale) [7]: 0
Corn plant response rating (0 to 100 scale) [8]: 0
Corn plant response rating [8]: 20
Barnyardgrass plant response rating [9, 21]: 10
Barnyardgrass plant response rating [9, 22]: 30
Crabgrass, Large plant response rating [10, 21]: 40
Crabgrass, Large plant response rating [10, 22]: 70
Foxtail, Giant plant response rating [11, 21]: 10
Foxtail, Giant plant response rating [11, 22]: 60
Morningglory plant response rating [12, 21]: 10
Morningglory plant response rating [12, 22]: 60
Pigweed plant response rating [13, 21]: 0
Pigweed plant response rating [13, 22]: 0
Velvetleaf plant response rating [14, 21]: 20
Velvetleaf plant response rating [14, 22]: 30
Wheat plant response rating [15, 21]: 0
Wheat plant response rating [15, 22]: 0
Corn plant response rating [16, 21]: 10
Corn plant response rating [16, 22]: 30
Plant response rating, Rice [17]: 0
Plant response rating, Sedge, Umbrella [18]: 50
Plant response rating, Ducksalad [19]: 55
Plant response rating, Barnyardgrass [20]: 0
